Legend:
Type in all cases: cell-based, human
[1] = test system: A375 melanoma cells; assay: Western blot of cleaved PARP and caspase-3; conditions: for levels of cleaved PARP and caspase-3: 48 hrs, FIG. 8D
Procedure: FIG. 8. […] (A) A375 and Malme-3M melanoma cells were cultured with or without 2.5 μM of IRAK-1,-4 and in the presence varying concentrations of vinblastine, cisplatin or 5′ Fluorouracil. Forty-eight hours later apoptosis was evaluated by staining cells with annexin-V and propidium iodide and analyzed by flow cytometry. (B) A375 cells were transfected via electroporation with siRNA-IRAK-1,-4. IRAK-1 protein levels were examined by Western blotting. […], A375-psiRNA-hIRAK-1, A375-psiRNA-hIRAK-4, or cells expressing both psiRNA-hIRAK-1 and -4 were cultured in the presence of vinblastine (100 nmol/L) for 48 hours and apoptosis was examined by flow cytometry. (C) A375 melanoma cells were cultured in the presence of vehicle alone (DMSO) or various concentrations of IRAK-1,-4. Forty-eight hours later cell lysates were used to analyze the expression of levels of cleaved PARP or caspase-3 by Western blots. (D) A375 melanoma cells were cultured with or without 2.5 μM of IRAK.-1,-4 and in the presence or absence of vinblastine for 48 hrs. PARP and caspase-3 levels were determined by Western blot.
(§1) Total cell extracts were prepared from melanoma cells. […] Melanoma tissue arrays were purchased from US Biomax, Inc (Rockville, Md.). For immunohistochemical staining samples were stained with mouse monoclonal anti-human phosphor-IRAK.-4 antibody (Abnova; dilution, 3.5 μg/ml) or normal mouse serum. Tissue histology sections (5-μm-thick) were deparaffinized, hydrated, heated in boiling 10 mmol/L sodium citrate (pH 6.0), for antigen retrieval, for 30 min and washed in Tris buffer. Peroxide blocking was done with 3% […] in methanol at room temperature for 15 min, followed by 10% fetal bovine serum in TBS-t for 30 min at room temperature. Primary antibody incubation was done overnight at 4° C. Secondary antibody incubation with horse anti-mouse (1:200; Vector Laboratories, Burlingame, Calif.) was done for 1 hr, followed by application of diaminobenzidine chromogen for 5 min. The slides were then counterstained with hematoxylin and topped with a coverslip. IHC specimens were analyzed using “quick score” system in which the intensity of the immunohistochemical reaction was scored by multiplying the intensity 1 (weak), 2 (moderate), and 3 (strong) and the proportion of cells staining positively 0 (<10%), 1 (10-25%), 2 (26-50%), 3 (51-75%) or 4 (>75%).

[2] = test system: G361 melanoma cells; assay: Western blot of IRAK phosphorylation in G361; conditions: Pam3CysK4 2.5 μg/ml or flagellin 100 ng/ml, 48 hours, FIG. 22B
Procedure: FIG. 22. Effects of TLR stimulation and cytokines on IRAK phosphorylation in melanoma cells. (A) A375 cells were cultured in the presence of anti-IL-18, anti-CXCL-1, (R&D Systems), anti-IL-1 (BioLegend), or mouse IgG (Sigma-Aldrich) all at 10 μg/ml. Forty-eight hours later the levels of the indicated proteins were determined by western blot. (B) A375 cells, which express p-IRAK-1 and p-IRAK-4, and G361 melanoma cells, which express very low levels of p-IRAK-1 (and express TLR5) were cultured in the presence of TLR1-TLR2 agonist (Pam3CysK4; 2.5 μg/ml) or TLR5 (flagellin; 100 ng/ml; InVivogen). Forty-eight hours later total protein was collected and the levels of the indicated proteins were examined by western blot.
as §1

[3] = test system: Jurkat; assay: Proliferation (3H-thymidine) of Jurkat; conditions: 3H-thymidine uptake, 72 h
Description: (§2) CCRF-CEM, CEM/C1, CEM/C2, CEM-C7, Jurkat, Loucy, Molt-4, HSB-2, SUP-T1, Hut 78, HH, Hut 102, MO, and H9 T-leukemia and T-lymphoma cell lines were purchased from the American Type Culture Collection (Manassas, Va., USA). All of the cell lines were initially expanded and cryopreserved within one month of receipt. Cells were typically used for 6 months at which time a fresh vial of cryopreserved cells was used. Total T cells from healthy donors were isolated via negative selection followed by positive selection using a CD3+ selection kit (Invitrogen, Carlsbad, Calif.). T cells were isolated from patients with T-ALL bone marrow or peripheral blood samples containing more than 70% leukemia cells using a CD2+ isolation kit (STEMCELL Technologies, Vancouver, Canada). All tissues were collected under institutional IRB-approved protocols and all participants gave written informed assent/consent. For in vitro experiments, T-ALL cells were cultured in AIM-V medium supplemented with 20% human AB serum in the presence of recombinant human stem cell factor (50 ng/mL; Amgen, Thousand Oaks, Calif.), insulin (20 nM; Sigma-Aldrich, St Louis, Mo., USA) and IL-7 (50 ng/mL; R&D Systems, Minneapolis, Minn., USA). In other experiments, protein lysate was collected using the Full Moon Biosystems (Sunnyvale, Calif., USA) buffer prior to protein examination by western blot or protein array.
(§3) Cells were cultured in a 96-well plate (Corning Costar, Corning, N.Y., USA) with various concentrations of TLR ligands 1-9, starting at 10 μg/ml, in a final volume of 200 ul. TLR ligands were diluted 2-fold. Cell lines (25-40×10^3/well) were cultured for 54 hours, whereas fresh patient-derived T-ALL cells (200×10^3/well) were cultured for 30 hours prior to adding [^3H]-thymidine for 18 hours. After this time point, cells were harvested with a Packard Filter-Mate-96 cell harvester (Perkin Elmer, Waltham, Mass., USA) and counted on Packard Top Count-NXT (Perkin Elmer, Waltham, Mass., USA). Results were expressed as average counts per minute (cpm). In some experiments CCRF-CEM cells were pre-treated with TLR1-TLR2 ligand (Pam3CysK4; 2.5 ug/ml) for 48 hrs, washed, and then cultured in the presence of varying concentrations of FBS. Forty-eight hours later, proliferation (±SD) was determined by ^3H-thymidine incorporation. Alternatively, apoptosis was measured by flow cytometry after staining cells with Annexin-V (BD Pharmingen, San Diego, Calif., USA) and propidium iodide (Sigma). Cell number was counted under microscopy by staining cells with trypan blue. […]

[4] = test system: CEM-C7; assay: Proliferation (3H-thymidine) of CEM-C7
Description: as §2
Cells were cultured in a 96-well plate (Corning Costar, Corning, N.Y., USA) with various concentrations of TLR ligands 1-9, starting at 10 μg/ml, in a final volume of 200 ul. TLR ligands were diluted 2-fold. Cell lines (25-40×10^3/well) were cultured for 54 hours, whereas fresh patient-derived T-ALL cells (200×10^3/well) were cultured for 30 hours prior to adding [^3H]-thymidine for 18 hours. After this time point, cells were harvested with a Packard Filter-Mate-96 cell harvester (Perkin Elmer, Waltham, Mass., USA) and counted on Packard Top Count-NXT (Perkin Elmer, Waltham, Mass., USA). Results were expressed as average counts per minute (cpm). In some experiments CCRF-CEM cells were pre-treated with TLR1-TLR2 ligand (Pam3CysK4; 2.5 ug/ml) for 48 hrs, washed, and then cultured in the presence of varying concentrations of FBS. Forty-eight hours later, proliferation (±SD) was determined by ^3H-thymidine incorporation. Alternatively, apoptosis was measured by flow cytometry after staining cells with Annexin-V (BD Pharmingen, San Diego, Calif., USA) and propidium iodide (Sigma). Cell number was counted under microscopy by staining cells with trypan blue.
The following TLR ligands were purchased from Invivogen (San Diego, Calif., USA): tripalmitoyl-S-(bis(palmitoyloxy)propyl)-Cys-Ser-(Lys)3-Lys (TLR1-2); Poly I:C (TLR3); ultrapure S. Minnesota Lipopolysaccharide (TLR4); S. typhimurium flagellin (TLR5); FSL-1 (TLR2/6); Imiquimod (TLR7); ssRNA40/Lyovec (TLR8); CpG-ODN 2006 (TLR9).

[5] = test system: Loucy; assay: Proliferation (3H-thymidine) of Loucy
Description: as §2, §3

Compound | levels of cleaved PARP and caspase-3 ([1]; 2.5 μmol/L IRAK-1,-4 inhibitor combined with vinblastine) | active caspase-3 ([1]; 10 μM, 48 h, FIG. 8C) | cleaved PARP ([1]; concentration-dependent, 48 h, FIG. 8C) | levels of cleaved PARP and caspase-3 ([1]; single agent alone) | p-IRAK-1 or p-IRAK-4 expression levels [2] | Proliferative effects of TLR ligands [3] | Proliferative effects of TLR ligands ([4]; 3H-thymidine uptake, 72 h) | TLR ligand concentration in parentheses below the symbol ([4]; no unit in table (μg/ml)) | Proliferative effects of TLR ligands ([5]; 3H-thymidine uptake, 72 h) | TLR ligand concentration in parentheses below the symbol ([5]; no unit in table (μg/ml))
O=C(Nc1nc2ccccc2n1CCN1CCOCC1)c1cccc([N+](=O)[O-])c1 [IRAK-1,-4 inhibitor] | increased the levels | detected | Enhanced accumulation | little effect |  |  |  |  |  | 
tripalmitoyl-S-(bis(palmitoyloxy)propyl)-Cys-Ser-(Lys)3-Lys [Pam3Cysk4] |  |  |  |  | neither TLR-1-TLR2 agonist (Pam3CysK4), nor TLR5 (Flagellin) stimulation increased or induced | ∘ | + (enhanced proliferation by 25% or greater) | (2.5) | + (enhanced proliferation by 25% or greater) | (2.5)
